In patent publication US8927500B2, “Peptidomimetic macrocycles” (Aileron Therapeutics, Inc., priority 2012, dated 2015):
Where a SMILES comes first, the peptide text is derived from it. Bridges are numbered along the chain shown (N, C = ends). [ ]: non-standard residue; d: D form. Trp(6-Cl) = N[C@@H](Cc1c[nH]c2cc(Cl)ccc12)C(=O)O; Phe(4-COOH) = N[C@@H](Cc1ccc(C(=O)O)cc1)C(=O)O; R8 = C=CCCCCCC[C@@](C)(N)C(=O)O; Cba = N[C@@H](CC1CCC1)C(=O)O; hLeu = CC(C)CC[C@H](N)C(=O)O; S5 = C=CCCC[C@](C)(N)C(=O)O; Nle = CCCC[C@H](N)C(=O)O

Tests used:
MDM2 = MDM2 (Homo sapiens, UniProt Q00987); assay: Competitive fluorescence polarization assay for MDM2; type: binding; details: competitive FP assay, MDM2; for IC50: read-out: IC50 (MDM2); for Ki: read-out: Ki (MDM2)
MDM2, sequence (Q00987 1-125): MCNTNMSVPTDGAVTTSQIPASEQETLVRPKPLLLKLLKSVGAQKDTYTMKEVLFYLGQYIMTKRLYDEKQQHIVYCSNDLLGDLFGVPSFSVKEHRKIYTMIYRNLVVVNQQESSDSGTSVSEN

MDMX = target: T1, MDMX (Homo sapiens, UniProt O15151); assay: Competitive fluorescence polarization assay for MDMX; type: binding; details: competitive FP assay; for IC50: read-out: IC50 (MDMX); for Ki: read-out: Ki (MDMX)
T1 sequence (O15151 1-125): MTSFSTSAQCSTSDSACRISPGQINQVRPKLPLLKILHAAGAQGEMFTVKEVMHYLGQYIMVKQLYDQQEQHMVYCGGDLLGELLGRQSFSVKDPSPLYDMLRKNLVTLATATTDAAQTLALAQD

| IC50 (MDM2) [µM] | Ki (MDM2) [µM] | IC50 (MDMX) [µM] | Ki (MDMX) [µM] | Compound |
| --- | --- | --- | --- | --- |
| 0.01 to 0.1 | < 0.01 | 0.01 to 0.1 | < 0.01 | CC[C@H](C)[C@H](NC(=O)[C@H](C)NC(=O)[C@H](C)NC(=O)[C@]1(C)CCCC=CCCCCCC[C@@](C)(NC(=O)[C@H](Cc2ccccc2)NC(=O)[C@@H](NC(=O)[C@H](CC(C)C)NC(C)=O)[C@@H](C)O)C(=O)N[C@@H](C)C(=O)N[C@@H](Cc2ccc(C(=O)O)cc2)C(=O)N[C@@H](Cc2c[nH]c3ccccc23)C(=O)N[C@@H](C)C(=O)N[C@@H](CCC(N)=O)C(=O)N[C@@H](CC2CCC2)C(=O)N1)C(=O)N[C@H](C)C(N)=O [compound 267] (Ac-LTF[R8]A[Phe(4-COOH)]WAQ[Cba][S5]AAI[dA]-NH2; staple 4-11) |
| < 0.01 | < 0.01 | 0.01 to 0.1 | < 0.01 | CCCC[C@H](NC(=O)[C@H](Cc1c[nH]c2ccccc12)NC(=O)[C@H](C)NC(=O)[C@]1(C)CCCC=CCCCCCC[C@@](C)(NC(=O)[C@H](Cc2ccccc2)NC(=O)[C@@H](NC(=O)[C@H](CC(C)C)NC(C)=O)[C@@H](C)O)C(=O)N[C@@H](CCC(=O)O)C(=O)N[C@@H](Cc2ccc(O)cc2)C(=O)N[C@@H](Cc2c[nH]c3ccccc23)C(=O)N[C@@H](C)C(=O)N[C@@H](CCC(N)=O)C(=O)N[C@@H](CC2CCC2)C(=O)N1)C(=O)N[C@H](C)C(N)=O [compound 271] (Ac-LTF[R8]EYWAQ[Cba][S5]AW[Nle][dA]-NH2; staple 4-11) |
| < 0.01 | < 0.01 | 0.1 to 1 | 0.01 to 0.1 | CCCC[C@H](NC(=O)[C@H](C)NC(=O)[C@H](C)NC(=O)[C@]1(C)CCCC=CCCCCCC[C@@](C)(NC(=O)[C@H](Cc2ccccc2)NC(=O)[C@@H](NC(=O)[C@H](CC(C)C)NC(C)=O)[C@@H](C)O)C(=O)N[C@@H](C)C(=O)N[C@@H](Cc2ccc(O)cc2)C(=O)N[C@@H](Cc2c[nH]c3ccccc23)C(=O)N[C@@H](CO)C(=O)N[C@@H](CCC(N)=O)C(=O)N[C@@H](CC(C)C)C(=O)N1)C(=O)N[C@@H](C)C(N)=O [compound 306] (Ac-LTF[R8]AYWSQL[S5]AA[Nle]A-NH2; staple 4-11) |
| 0.01 to 0.1 | 0.01 to 0.1 | 0.1 to 1 | 0.1 to 1 | CCCC[C@H](NC(=O)[C@H](C)NC(=O)[C@H](C)NC(=O)[C@]1(C)CCCC=CCCCCCC[C@@](C)(NC(=O)[C@H](Cc2ccccc2)NC(=O)[C@@H](NC(=O)[C@H](C)NC(=O)[C@H](C)NC(C)=O)[C@@H](C)O)C(=O)N[C@@H](C)C(=O)N[C@@H](Cc2ccc(O)cc2)C(=O)N[C@@H](Cc2c[nH]c3ccccc23)C(=O)N[C@@H](C)C(=O)N[C@@H](CCC(N)=O)C(=O)N[C@@H](CC(C)C)C(=O)N1)C(=O)N[C@@H](C)C(N)=O [compound 319] (Ac-AATF[R8]AYWAQL[S5]AA[Nle]A-NH2; staple 5-12) |
| 0.01 to 0.1 | 0.01 to 0.1 | 0.1 to 1 | 0.1 to 1 | CCCC[C@H](NC(=O)[C@H](C)NC(=O)[C@H](C)NC(=O)[C@]1(C)CCCC=CCCCCCC[C@@](C)(NC(=O)[C@H](Cc2ccccc2)NC(=O)[C@@H](NC(=O)[C@H](CC(C)C)NC(C)=O)[C@@H](C)O)C(=O)N[C@@H](C)C(=O)N[C@@H](Cc2ccc(O)cc2)C(=O)N[C@@H](Cc2c[nH]c3ccccc23)C(=O)N[C@@H](C)C(=O)N[C@@H](CCC(N)=O)C(=O)N[C@@H](CC2CCC2)C(=O)N1)C(=O)N[C@@H](C)C(=O)N[C@@H](C)C(N)=O [compound 322] (Ac-LTF[R8]AYWAQ[Cba][S5]AA[Nle]AA-NH2; staple 4-11) |

The next lines start with the molecule.

| Compound | IC50 (MDM2) [µM] | Ki (MDM2) [µM] | IC50 (MDMX) [µM] | Ki (MDMX) [µM] |
| --- | --- | --- | --- | --- |
| CC[C@H](C)[C@H](NC(=O)[C@H](C)NC(=O)[C@H](C)NC(=O)[C@]1(C)CCCC=CCCCCCC[C@@](C)(NC(=O)[C@H](Cc2ccccc2)NC(=O)[C@@H](NC(=O)[C@H](CC(C)C)NC(C)=O)[C@@H](C)O)C(=O)N[C@@H](C)C(=O)N[C@@H](Cc2ccc(O)cc2)C(=O)N[C@@H](Cc2c[nH]c3cc(Cl)ccc23)C(=O)N[C@@H](C)C(=O)N[C@@H](CCC(N)=O)C(=O)N[C@@H](CC2CCC2)C(=O)N1)C(=O)N[C@H](C)C(N)=O [compound 266] (Ac-LTF[R8]AY[Trp(6-Cl)]AQ[Cba][S5]AAI[dA]-NH2; staple 4-11) | 0.01 to 0.1 | < 0.01 | 0.1 to 1 | 0.01 to 0.1 |
| CCCC[C@H](NC(=O)[C@H](Cc1c[nH]c2ccccc12)NC(=O)[C@H](C)NC(=O)[C@]1(C)CCCC=CCCCCCC[C@@](C)(NC(=O)[C@H](Cc2ccccc2)NC(=O)[C@@H](NC(=O)[C@H](CCC(=O)O)NC(C)=O)[C@@H](C)O)C(=O)N[C@@H](C)C(=O)N[C@@H](Cc2ccc(O)cc2)C(=O)N[C@@H](Cc2c[nH]c3ccccc23)C(=O)N[C@@H](C)C(=O)N[C@@H](CCC(N)=O)C(=O)N[C@@H](CC2CCC2)C(=O)N1)C(=O)N[C@H](C)C(N)=O [compound 270] (Ac-ETF[R8]AYWAQ[Cba][S5]AW[Nle][dA]-NH2; staple 4-11) | < 0.01 | < 0.01 | 0.01 to 0.1 | 0.01 to 0.1 |
| CCCC[C@H](NC(=O)[C@H](Cc1c[nH]c2ccccc12)NC(=O)[C@H](C)NC(=O)[C@]1(C)CCCC=CCCCCCC[C@@](C)(NC(=O)[C@H](Cc2ccccc2)NC(=O)[C@@H](NC(=O)[C@H](CCC(=O)O)NC(C)=O)[C@@H](C)O)C(=O)N[C@@H](CCC(=O)O)C(=O)N[C@@H](Cc2ccc(O)cc2)C(=O)N[C@@H](Cc2c[nH]c3ccccc23)C(=O)N[C@@H](C)C(=O)N[C@@H](CCC(N)=O)C(=O)N[C@@H](CC2CCC2)C(=O)N1)C(=O)N[C@H](C)C(N)=O [compound 272] (Ac-ETF[R8]EYWAQ[Cba][S5]AW[Nle][dA]-NH2; staple 4-11) | < 0.01 | < 0.01 | 0.01 to 0.1 | < 0.01 |
| CCCC[C@H](NC(=O)[C@H](Cc1c[nH]c2ccccc12)NC(=O)[C@H](C)NC(=O)[C@]1(C)CCCC=CCCCCCC[C@@](C)(NC(=O)[C@H](Cc2ccccc2)NC(=O)[C@@H](NC(=O)[C@H](CCC(=O)O)NC(C)=O)[C@@H](C)O)C(=O)N[C@@H](C)C(=O)N[C@@H](Cc2ccc(O)cc2)C(=O)N[C@@H](Cc2c[nH]c3ccccc23)C(=O)N[C@@H](C)C(=O)N[C@@H](CCC(N)=O)C(=O)N[C@@H](CC(C)C)C(=O)N1)C(=O)N[C@H](C)C(N)=O [compound 276] (Ac-ETF[R8]AYWAQL[S5]AW[Nle][dA]-NH2; staple 4-11) | 0.01 to 0.1 | < 0.01 | 0.01 to 0.1 | < 0.01 |
| CCCC[C@H](NC(=O)[C@H](Cc1c[nH]c2ccccc12)NC(=O)[C@H](C)NC(=O)[C@]1(C)CCCC=CCCCCCC[C@@](C)(NC(=O)[C@H](Cc2ccccc2)NC(=O)[C@@H](NC(=O)[C@H](CC(C)C)NC(C)=O)[C@@H](C)O)C(=O)N[C@@H](CCC(=O)O)C(=O)N[C@@H](Cc2ccc(O)cc2)C(=O)N[C@@H](Cc2c[nH]c3ccccc23)C(=O)N[C@@H](C)C(=O)N[C@@H](CCC(N)=O)C(=O)N[C@@H](CC(C)C)C(=O)N1)C(=O)N[C@H](C)C(N)=O [compound 277] (Ac-LTF[R8]EYWAQL[S5]AW[Nle][dA]-NH2; staple 4-11) | 0.01 to 0.1 | < 0.01 | 0.01 to 0.1 | < 0.01 |
| CCCC[C@H](NC(=O)[C@H](Cc1c[nH]c2ccccc12)NC(=O)[C@H](C)NC(=O)[C@]1(C)CCCC=CCCCCCC[C@@](C)(NC(=O)[C@H](Cc2ccccc2)NC(=O)[C@@H](NC(=O)[C@H](CCC(=O)O)NC(C)=O)[C@@H](C)O)C(=O)N[C@@H](CCC(=O)O)C(=O)N[C@@H](Cc2ccc(O)cc2)C(=O)N[C@@H](Cc2c[nH]c3ccccc23)C(=O)N[C@@H](C)C(=O)N[C@@H](CCC(N)=O)C(=O)N[C@@H](CC(C)C)C(=O)N1)C(=O)N[C@H](C)C(N)=O [compound 278] (Ac-ETF[R8]EYWAQL[S5]AW[Nle][dA]-NH2; staple 4-11) | 0.01 to 0.1 | < 0.01 | 0.01 to 0.1 | < 0.01 |
| CCCC[C@H](NC(=O)[C@H](C)NC(=O)[C@H](C)NC(=O)[C@]1(C)CCCC=CCCCCCC[C@@](C)(NC(=O)[C@H](Cc2ccccc2)NC(=O)[C@@H](NC(=O)[C@H](CC(C)C)NC(C)=O)[C@@H](C)O)C(=O)N[C@@H](CCC(=O)O)C(=O)N[C@@H](Cc2ccc(O)cc2)C(=O)N[C@@H](Cc2c[nH]c3ccccc23)C(=O)N[C@@H](C)C(=O)N[C@@H](CCC(N)=O)C(=O)N[C@@H](CCC(C)C)C(=O)N1)C(=O)N[C@@H](C)C(N)=O [compound 318] (Ac-LTF[R8]EYWAQ[hLeu][S5]AA[Nle]A-NH2; staple 4-11) | 0.01 to 0.1 | 0.01 to 0.1 | 0.1 to 1 | 0.01 to 0.1 |
| CCCC[C@H](NC(=O)[C@H](C)NC(=O)[C@H](C)NC(=O)[C@]1(C)CCCC=CCCCCCC[C@@](C)(NC(=O)[C@H](Cc2ccccc2)NC(=O)[C@@H](NC(=O)[C@H](CC(C)C)NC(C)=O)[C@@H](C)O)C(=O)N[C@@H](C)C(=O)N[C@@H](Cc2ccc(O)cc2)C(=O)N[C@@H](Cc2c[nH]c3ccccc23)C(=O)N[C@@H](C)C(=O)N[C@@H](CCC(N)=O)C(=O)N[C@@H](CC(C)C)C(=O)N1)C(=O)N[C@@H](C)C(=O)N[C@@H](C)C(N)=O [compound 320] | 0.01 to 0.1 | 0.01 to 0.1 | 0.1 to 1 | 0.1 to 1 |
| CCCC[C@H](NC(=O)[C@H](C)NC(=O)[C@H](C)NC(=O)[C@]1(C)CCCC=CCCCCCC[C@@](C)(NC(=O)[C@H](Cc2ccccc2)NC(=O)[C@@H](NC(=O)[C@H](CC(C)C)NC(=O)[C@H](C)NC(C)=O)[C@@H](C)O)C(=O)N[C@@H](C)C(=O)N[C@@H](Cc2ccc(O)cc2)C(=O)N[C@@H](Cc2c[nH]c3ccccc23)C(=O)N[C@@H](C)C(=O)N[C@@H](CCC(N)=O)C(=O)N[C@@H](CC(C)C)C(=O)N1)C(=O)N[C@@H](C)C(=O)N[C@@H](C)C(N)=O [compound 321] | 0.01 to 0.1 | < 0.01 | 0.1 to 1 | 0.01 to 0.1 |
